The record followed here is the NIST ThermoML archive (doi:10.1016/j.jct.2018.11.003).

A short description of this data set: cn = amount concentration of the nth substance listed, in mol/dm3. Conditions: 298.15 K, 101.3 kPa, Liquid, Taylor dispersion method.

Each structure is given as a SMILES string.

For `O=C(O)CC(O)(CC(=O)O)C(=O)O` [citric acid] + O, the binary diffusion coefficient is, setting by setting: (c1 = 0.002) 8.48e-10 m2/s; (c1 = 0.00499) 7.9e-10 m2/s; (c1 = 0.00997) 7.6e-10 m2/s; (c1 = 0.05) 7.19e-10 m2/s.
On to `O=C([O-])CC(O)(CC(=O)[O-])C(=O)[O-].O=C([O-])CC(O)(CC(=O)[O-])C(=O)[O-].[Ca+2].[Ca+2].[Ca+2]` [calcium citrate] + O, for which the binary diffusion coefficient (c1 = 0.0002) worked out at 6.18e-10 m2/s, the binary diffusion coefficient (c1 = 0.000402) was 6.18e-10 m2/s, the binary diffusion coefficient (c1 = 0.000603) stood at 6.16e-10 m2/s and the binary diffusion coefficient (c1 = 0.000801) worked out at 6.11e-10 m2/s.
